The source of these data is patent US20040006236A1, “Diaminopropionic acid derivatives” (priority 1999, published 2004).

Test [1] deals with T lymphocyte proliferation (C57BI/6 spleen cells with irradiated BALB/c spleen cells). In words: Mixed lymphocyte reaction (MLR), one-way. Format: cell-based, mice. To be noted: Mus musculus, T-lymphocyte; read-out: MLR IC50. In a few lines:
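One-way murine MLR: C57BI/6 responder splenocytes proliferate against irradiated BALB/c stimulators while exposed to serially diluted antagonists in supplemented RPMI1640 for 3 days. Proliferation read as [3H]-thymidine uptake over a final 6 h pulse (0.5 μCi/well), scintillation counted.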

In test [2] the target is T1, LFA-1 binding to immobilized ICAM-1 (Homo sapiens, UniProt P05107+P20701).
T1 construct: made in house; host or cells: transfected 293 cells (LFA-1)
T1 sequence (P20701 26-1170): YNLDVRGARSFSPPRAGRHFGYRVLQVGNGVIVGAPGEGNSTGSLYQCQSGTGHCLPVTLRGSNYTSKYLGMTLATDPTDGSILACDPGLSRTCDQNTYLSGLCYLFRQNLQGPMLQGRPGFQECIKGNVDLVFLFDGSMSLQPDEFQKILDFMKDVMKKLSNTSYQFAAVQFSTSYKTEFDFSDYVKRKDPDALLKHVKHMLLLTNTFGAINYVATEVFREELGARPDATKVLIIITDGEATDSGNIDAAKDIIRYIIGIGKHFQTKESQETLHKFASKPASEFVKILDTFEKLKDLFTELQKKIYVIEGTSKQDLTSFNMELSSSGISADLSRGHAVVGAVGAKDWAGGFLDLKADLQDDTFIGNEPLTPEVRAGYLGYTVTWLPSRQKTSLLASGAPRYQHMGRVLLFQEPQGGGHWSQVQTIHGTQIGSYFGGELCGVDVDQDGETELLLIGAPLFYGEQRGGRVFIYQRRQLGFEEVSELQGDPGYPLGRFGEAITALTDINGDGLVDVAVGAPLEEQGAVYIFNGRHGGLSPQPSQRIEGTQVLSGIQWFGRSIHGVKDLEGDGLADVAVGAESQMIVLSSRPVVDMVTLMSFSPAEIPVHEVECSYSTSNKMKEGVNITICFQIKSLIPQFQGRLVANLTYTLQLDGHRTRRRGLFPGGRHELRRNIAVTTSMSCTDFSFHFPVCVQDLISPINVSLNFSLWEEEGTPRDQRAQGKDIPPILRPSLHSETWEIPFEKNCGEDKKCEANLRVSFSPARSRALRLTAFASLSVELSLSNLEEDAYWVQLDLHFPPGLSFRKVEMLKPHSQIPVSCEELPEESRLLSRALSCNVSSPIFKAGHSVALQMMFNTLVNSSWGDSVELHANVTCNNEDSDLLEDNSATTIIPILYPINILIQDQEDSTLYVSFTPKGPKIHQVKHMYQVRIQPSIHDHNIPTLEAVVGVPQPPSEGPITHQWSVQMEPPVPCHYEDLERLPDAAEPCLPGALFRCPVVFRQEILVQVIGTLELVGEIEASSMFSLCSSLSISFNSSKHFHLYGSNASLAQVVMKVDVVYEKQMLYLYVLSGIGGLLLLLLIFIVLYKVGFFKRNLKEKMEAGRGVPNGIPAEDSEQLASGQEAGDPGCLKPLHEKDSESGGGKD
T1 sequence (P05107 23-769): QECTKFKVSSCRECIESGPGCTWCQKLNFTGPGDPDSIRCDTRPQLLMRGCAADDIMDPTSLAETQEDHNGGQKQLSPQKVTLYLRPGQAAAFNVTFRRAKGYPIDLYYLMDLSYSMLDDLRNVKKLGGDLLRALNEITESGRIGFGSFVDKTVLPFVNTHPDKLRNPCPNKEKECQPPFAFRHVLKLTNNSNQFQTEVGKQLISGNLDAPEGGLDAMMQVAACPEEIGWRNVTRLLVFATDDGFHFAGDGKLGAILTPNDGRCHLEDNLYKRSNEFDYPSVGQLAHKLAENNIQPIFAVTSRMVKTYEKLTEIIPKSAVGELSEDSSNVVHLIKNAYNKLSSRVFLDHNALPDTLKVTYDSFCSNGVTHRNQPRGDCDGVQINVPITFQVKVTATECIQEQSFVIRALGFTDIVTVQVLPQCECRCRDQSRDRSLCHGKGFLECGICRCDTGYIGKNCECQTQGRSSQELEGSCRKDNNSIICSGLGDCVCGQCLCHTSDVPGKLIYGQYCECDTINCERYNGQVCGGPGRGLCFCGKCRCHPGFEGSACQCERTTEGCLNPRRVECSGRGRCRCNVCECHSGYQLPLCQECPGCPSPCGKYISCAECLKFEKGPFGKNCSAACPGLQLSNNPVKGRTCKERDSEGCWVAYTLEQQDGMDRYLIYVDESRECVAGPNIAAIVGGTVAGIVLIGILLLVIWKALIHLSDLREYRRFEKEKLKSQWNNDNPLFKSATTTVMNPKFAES
In words: LFA-1/ICAM-1 protein-protein assay (solid-phase ELISA). To be noted: read-out: LFA-1/ICAM-1 Protein-Protein Assay IC50. In a few lines:
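Human 5dICAM-Ig (ICAM-1 extracellular domain–IgG Fc) coated on plates; membrane-bound LFA-1 from transfected 293 cells (280 ng/mL) added with compound in Mn2+-containing HEPES buffer pH 7.2, 2 h at 37° C. Bound LFA-1 detected via anti-β2 antibody and HRP/TMB at 450 nm; IC50s determined.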

`O=C(CC1CCCC1)NC[C@H](NC(=O)c1ccc(C(=O)NCc2cccc(O)c2)cc1Cl)C(=O)O` [Example 77]: the IC50 turned out to be 700 nM in test [1] and 2.1 nM in test [2].
